Experimental data from patent US20260193180A1, “AUTOPHAGY INDUCING COMPOUNDS AND USES THEREOF” (SAMSARA THERAPEUTICS INC., priority 2022, published 2026).

What was measured:
[1] = system: C57BL/6JRj mice injured by intra-nigral injections of alpha-synuclein and CBE; test: Mouse model of Parkinson's disease (intra-nigral alpha-synuclein protofibrils plus CBE); format: in vivo; details: 30 mg/kg per os once a day
From the text: This model (run by Neuro-Sys SAS, France) uses C57BL/6JRj mice injured by intra-nigral injections of a solution containing protofibrils of alpha-synuclein (α-syn, precisely quantified by automatic Western Blot) and combined with pharmacological inhibition of GBA by conduritol B epoxide (CBE), in aged mice. The model mimics the main pathologies of PD: loss of dopaminergic neurons in the substantia nigra, neuroinflammation, deficits in motor coordination and synucleinopathy (α-syn aggregation). Any substance with positive effects in this model may be useful as a new therapeutic agent for the treatment or prevention of PD.
• Type of animal: C57BL/6JRj (Male) • Age: 18 months old • Supplier: Janvier Labs • Animal number: 10 mice per group • Acclimation and clinical signs: Animals arrived on site 7 days (one week) before the experiment to allow optimal acclimation.
Overview: CBE was administered along with the test compounds, starting on the day of the stereotaxic injections of the α-syn oligomer preparation.
Test compounds at specific concentrations (see below) were administered per os (gavage or drinking water). • Test compound treatment: The test compounds were solubilized (vehicle=water), aliquoted and stored at −20° C. Aliquots were thawed overnight at 4° C. and given once a day. Treatment started on the day of the stereotaxic injections of α-syn preparation (Day 0). Treatment was administrated until the last day of the experiment (Day 28; =day of dissection). • CBE dose and administration: 50 mg/kg, Intraperitoneal (i.p.), twice a day. • CBE treatment: Administration of CBE (vehicle=saline [NaCl 0.9%] started on the day of the stereotaxic injections of α-syn preparation (Day 0). Treatment was administrated until the last day of the experiment (Day 28; =day of dissection), • Untreated control: vehicle (saline; i.p.) administered twice a day, • Stereotaxic injections of α-syn oligomers: Human α-syn peptide (stock at 69 μM in water at −20° C.) was reconstituted at 50 μM in NaCl, 0.9% (final concentration). All mice in compound treated groups were subjected to surgery and received 2.5 μL of α-syn solution. Mice were anesthetized by isoflurane (4%, for induction), in an induction chamber coupled with a vaporizer and to an oxygen concentrator. Mice were placed on the stereotaxic frame. Anesthesia was maintained by isoflurane (2%) with a face mask coupled to the isoflurane vaporizer and oxygen concentrator machine. The skull was exposed and holes were drilled. The α-syn preparation was bilaterally injected into the SNpc, at the following coordinates: A-P, −0.3 mm; M-L, +0.12 mm; D-V, −0.45 mm. Depth of anesthesia and rectal temperature were verified every 5 minutes. After surgery, mice were allowed to recover before being placed back in the cage.
• i) Body mass • ii) Assessment of motor coordination: bar test and grid walking test • iii) Dopaminergic Tyrosine hydroxylase (TH)-positive neuron survival in the substantia nigra pars compacta (SNpc), i.e. a measure of the number of TH neurons in the SNpc • iv) α-syn area in TH positive neurons (a measure of the degree of aggregation of α-syn in TH positive neurons, in the SNpc)
• Overall: For overall evaluation and body mass, mice were observed daily, and body mass was monitored prior to drug administration. • Assessment of motor coordination: bar test.
In the third week (Week 3) post-surgery, motor coordination of the mice was assessed with the bar test. The principle of the test is based on the capacity of the mice to cross a horizontal bar connected to a platform (18 mm of diameter, 60 cm long). The test requires good coordination between front and hindlimbs, and good balance. Mice are placed at one extremity of the bar and need to reach a platform located at the other side of the bar. Motor coordination was studied after two training sessions, one and two days before the test. Three sessions were recorded by a video camera system. […]

Prp-TDP43 mice = test: Mouse model of Amyotrophic Lateral Sclerosis (ALS); details: 30 mg/kg once per day, oral gavage; for increase in mean CAMP amplitude compared to the vehicle controlled group: sciatic nerve

CCOc1ccc(Cl)cc1CN1CC[C@@H](CN)C1.Cl [Compound 12, (S)-(1-(5-chloro-2-ethoxybenzyl)pyrrolidin-3-yl)methanamine hydrochloride]
bar test: decrease in the mean time required to cross the bar compared to the α-syn/CBE injured group ([1]; week 3): 21% | bar test: reduction in the mean number of steps required to cross the bar compared to the α-syn/CBE injured group ([1]; week 3): 2% | bar test: reduction in the number of misplaced steps (failed strides) compared to the α-syn/CBE injured group ([1]; week 3): 33% | decrease in the aggregation of α-syn in TH neurons (α-syn area) compared to the α-syn/CBE injured group ([1]; week 4): 10% | grid walking test: increase in the total distance travelled during the test ([1]; week 4): 12% | grid walking test: reduction in the mean number of failures per meter (number of missed steps) ([1]; week 4): 21% | increase in the number of dopaminergic TH positive neurons in the SNpc compared to the α-syn/CBE injured group ([1]; week 4): 36% | body weight compared to the vehicle group (Prp-TDP43 mice): increase | mortality (Prp-TDP43 mice; 60 days): No mortality was observed | pathological clinical signs (Prp-TDP43 mice; 60 days): No pathological clinical sign was observed | decrease in mean NfL concentration (plasma) compared to the vehicle controlled group (Prp-TDP43 mice; at three months of age): 54% | increase in mean NCV (nerve conduction velocity) compared to the vehicle controlled group (Prp-TDP43 mice; at three months of age): 139% | increase in mean rotarod latency compared to the vehicle controlled group (Prp-TDP43 mice; at three months of age): 99% | increase in mean CAMP amplitude compared to the vehicle controlled group (Prp-TDP43 mice; at three months of age): 73% | decrease in mean NfL concentration (plasma) compared to the vehicle controlled group (Prp-TDP43 mice; at two months of age): 48% | increase in mean rotarod latency compared to the vehicle controlled group (Prp-TDP43 mice; at two months of age): 76% | increase in mean CAMP amplitude compared to the vehicle controlled group (Prp-TDP43 mice; at two months of age): 39%
